Measurements from article PMC5107132 (European journal of pharmacology, 2016).

Tested on: Wistar rats
Test: Spontaneous locomotor activity
Format: in vivo, rat
Settings: 15 mg/kg i.p., 45 min

## C#Cc1ccc2c(c1)C(c1ccccc1F)=N[C@H](C)c1c(C(=O)NC)ncn1-2 [MP-III-022, (R)-8-Ethynyl-6-(2-fluorophenyl)-N,4-dimethyl-4H-benzo[f]imidazo[1,5-a][1,4]diazepine-3-carboxamide]
  Spontaneous locomotor activity, total distance traveled: slight hyperlocomotion
